Measurements reported in patent publication US5614370A, “Assay to identify human C5a antagonists and agonists” (Merck & Co., Inc., priority 1994, dated 1997).
“Also recorded” adds a separate entry of the source. Non-standard residues stand in square brackets, D forms with d. Residues, ends and D or L forms follow the SMILES beside them. 1Nal = N[C@@H](Cc1cccc2ccccc12)C(=O)O; NMeF = CN[C@@H](Cc1ccccc1)C(=O)O; Cha = N[C@@H](CC1CCCCC1)C(=O)O; dCha = N[C@H](CC1CCCCC1)C(=O)O

T1: C5a receptor (Homo sapiens, UniProt P21730)
T1 construct: followed by a 20 μL aliquot of neutrophil membrane; endogenous in cells
T1 sequence (P21730 1-350): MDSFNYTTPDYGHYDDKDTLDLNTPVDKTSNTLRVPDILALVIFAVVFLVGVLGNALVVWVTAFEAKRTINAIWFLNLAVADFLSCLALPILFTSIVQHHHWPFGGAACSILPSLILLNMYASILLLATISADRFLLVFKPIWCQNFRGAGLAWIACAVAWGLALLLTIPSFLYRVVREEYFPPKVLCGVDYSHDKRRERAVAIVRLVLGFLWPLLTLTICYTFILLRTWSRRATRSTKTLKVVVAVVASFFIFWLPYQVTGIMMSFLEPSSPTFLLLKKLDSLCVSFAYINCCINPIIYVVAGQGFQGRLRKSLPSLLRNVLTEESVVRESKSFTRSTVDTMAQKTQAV

B1: C5a: 74 amino acid protein derived from the fifth component of serum complement during complement activation (protein, UniProt P01031 678-751, looked up)
C5a anaphylatoxin: TLQKKIEEIAAKYKHSVVKKCCYDGACVNNDETCEQRAARISLGPRCIKAFTECCVVASQLRANISHKDMQLGR
modifications: C5a anaphylatoxin

Tests used:
human neutrophils [1] = experiment: Chemotaxis, Boyden Chamber assay; format: cell-based; settings: FIG. 6A
Protocol: (§1) FIG. 6A and 6B. Chemotaxis and G protein activation elicited by the hexapeptides.
(§2) This assay is a modification of the procedure described by Sims et. al. (Sims, T. J., Geissler, F. T. and Page, R. C. (1985) J. lmmunol. Meth. 78, 279-291 ). Chemotaxis was assayed in a 48 well Neuro Probe chamber (Neuro Probe, Bethesda, MD) using ^51 Cr-labelled cells. Varying concentrations of C5a or peptide were placed in the lower chamber which was successively covered by a 100 μm nitrocellulose membrane (Neuro Probe, Bethesda, Md.) and two 3 μm polycarbonate filters. After preforming a gradient for 30 minutes at 37° C., 2×10^5 labelled cells were added to the upper chamber and allowed to migrate at 37° C. for one hour. The upper two polycarbonate filters were then discarded and the formed wells cut from the nitrocellulose membrane. The radioactivity present in these filters is a measure of the number of cells that migrated through both polycarbonate filters.
A plot of the initial concentration of agent placed in the lower chamber against the number of cells which migrate (measured by counting the ^51 Cr-labelled cells) is shown in FIG. 6A. For C5a, maximal response occurs at 10 nM. Since the cells migrate in response to the concentration gradient established across the filters, the actual stimulatory concentration is much lower than the nominal value plotted on the abcissa in FIG. 6A.

[2] = system: human neutrophil membranes; experiment: GTPase activity in neutrophil membranes (G protein activation); format: biochemical
From the text: as §1
Since C5a evokes such a plethora of biological responses, it is difficult to ascertain a molecule's overall functional properties from any subset of responses. […] An alternative to investigating all of the responses generated by the C5a receptor, is to determine a molecule's ability to stimulate G protein activation. Such a measurement should give an integrated view of a molecule's agonist properties. As a measure of G protein activation we have investigated the peptides' abilities to stimulate GTPase activity in human neutrophil membranes:
(§3) The method of Kupper et al. (Kupper, R. W., Dewald, B., Jakobs, K. H., Baggiolini, M. and Gierschik, P. (1992) Biochem. J. 282, 429-434) was adapted for use in microtiter plates. Neutrophil membranes were suspended in 50 mM triethanolamine-HCl, 5 mM MES, pH 7.3, containing 1 mM EDTA, 5 mM MgCl2, 143 mM NaCl, 0.16 % BSA, 1 mM ouabain, 1 mM AMP-PNP, 0.5 mM ATP, 2.5 U/mL creatine phosphokinase,. 10 mM creatine phosphate, 0.1 mM PMSF and 10 ng/mL each of leupeptin, aprotinin and chymostatin. 50 μL of membranes containing 1-5 μg protein were added to 50 μL of the same buffer containing the test agent and 0.25 μM [γ-^32 P]-GTP (2,000 cpm/pmol) in the wells of a U-shaped microtiter plate. After incubation for 15-30 rain at 29° C., 100 μL of a 10% (w/v) charcoal suspension in 100 mM H3 PO4 was added and plates were centrifuged at 2000 rpm for 5 min. 100 μL of the supernatant was transferred to an Optiplate microtiter plate and 100 μL of Microscint-40 scintillation cocktail was added. Plates were counted in a Packard TopCount microtiter plate counter.

human neutrophils [3] = experiment: Ligand induced Ca2+ flux (Indo-1 fluorescence); format: cell-based; settings: FIG. 5B
Protocol: FIG. 5A and 5B. Degranulation and Ca^2+ responses to the hexapeptides. […] The ED50 's for the degranulation are: C5a, 0.5 nM; C028, 0.2 μM; C026, 1 μM. C5a, maximally, released 57% of the total cellular content of MPO. The ability of these molecules to elicite a Ca^2+ -flux is shown in B. The concentrations used for C028 (10 μM), C026 (10 μM), C061 (100 μM) are those which produce a maximal flux. A saturating concentration was also used for C5a (1 nM).
(§4) Ligand induced Ca^2+ fluxes were measured by following the change in Indo-1 induced fluorescence on a FACS analyzer as previously described (Van Riper, G., Siciliano, S. J., Fischer, P. A., Meurer, R., Springer, M. S. and Rosen, H. (1993) J. Exp. Med. 177, 851-856.).
FIG. 5B compares the maximal effects of each peptide (10-100 μM) with the response induced by C5a (1 nM).

C5a receptor = target: T1, C5a receptor; experiment: Agonist activity over all C5a induced responses (chemotaxis, MPO release, calcium flux, GTPase activity, GTPγ-S binding); format: cell-based; settings: C089 tested up to and including 100 μM
Protocol: The EC50 measures the concentration of compound at which a 50% maximal stimulation of a given biological response induced by C5a is achieved (chemotaxis, MPO release, calcium flux, GTPase activity or GTPγ-S binding), and the IC50 is the concentration at which 50% maximal inhibition of C5a binding is achieved.
This assay was performed on human neutrophils as previously reported and it is a measure of C5a or peptide induced exocytosis (Rollins, T. E. and Springer, M. S. (1985) J. Biol. Chem. 260, 7157-7160).
as §4
as §2, with “Varying concentrations of C5a or peptide were placed in the lower chamber which was successively covered by a 100 μm nitrocellulose membrane (Neuro Probe, Bethesda, Md.) and two 3 μm polycarbonate filters.” left out
as §3

[4] = nominal initial concentration in lower chamber
[5] = maximal effects, peptide 10-100 μM vs 1 nM C5a

EC50 ([2]; FIG. 6B, read-out: ED50 for stimulation of GTPase activity) [nM] | Molecule | chemotactic response in words (human neutrophils [1]) | concentration of maximal chemotactic response (maximal migration) (human neutrophils [1]; [4]) | stimulation of GTPase activity / G protein activation in words ([2]; FIG. 6B) | concentration which produces a maximal Ca2+ flux (human neutrophils [3]) [µM] | Ca2+ response in words (human neutrophils [3]; [5]) | Ca2+ response relative to C028 and C5a (human neutrophils [3]; [5]) [%] | agonist activity in words, all responses (C5a receptor) | concentration of maximal chemotactic response (human neutrophils [1]; [4]) [nM] | GTPase activity ([2]; 3 nM C5a, absence of C089, raised from 46) [pmol/min/mg protein]
 | CN[C@@H](Cc1ccccc1)C(=O)N[C@@H](CCCCN)C(=O)N1CCC[C@H]1C(=O)N[C@H](CC1CCCCC1)C(=O)N[C@@H](Cc1cccc2ccccc12)C(=O)N[C@H](CCCNC(=N)N)C(=O)O [C061] (H-[NMeF]KP[dCha][1Nal][dR]-OH) | good chemotactic activity; also recorded: elicits as great an accumulation of cells as either C026, or C028, or for that matter, C5a | about 100 μM | significantly lower GTPase activity | 100 | only a very small increase in intracellular Ca^2+ levels; also recorded: small increase in the level of intracellular Ca^2+ |  |  |  | 
 | CN[C@@H](Cc1ccccc1)C(=O)N[C@@H](CCCCN)C(=O)N1CCC[C@H]1C(=O)N[C@H](CC1CCCCC1)C(=O)N[C@@H](Cc1ccccc1)C(=O)N[C@H](CCCNC(=N)N)C(=O)O [C026, NMeF--K--P-dCha-F-dR] (H-[NMeF]KP[dCha]F[dR]-OH) | full agonist in chemotaxis; also recorded: strong chemoattractants; also recorded: as chemotactic as C028 | 1 µM | full agonist in chemotaxis or C5a receptor-linked G-protein activation; also recorded: somewhat reduced ability to stimulate the GTP hydrolysis | 10 |  | 50 |  |  | 
 | CN[C@@H](Cc1ccccc1)C(=O)N[C@@H](CCCCN)C(=O)N1CCC[C@H]1C(=O)N[C@H](CC1CCCCC1)C(=O)N[C@@H](Cc1c[nH]c2ccccc12)C(=O)N[C@H](CCCNC(=N)N)C(=O)O [C089] | little or no ability to stimulate a chemotactic response |  | does not stimulate G protein activation; also recorded: fails entirely to stimulate GTP hydrolysis |  | fails to stimulate a detectable change in Ca^2+ level |  | without agonist activity in any of the assays; also recorded: do not induce a response; also recorded: completely devoid of agonist activity |  | 
 | CC(C)C[C@H](NC(=O)[C@H](CC1CCCCC1)NC(=O)[C@H](CC1CCCCC1)NC(=O)[C@H](C)NC(=O)[C@H](CCCCN)NC(=O)[C@H](Cc1ccccc1)NC(=O)[C@@H](N)Cc1ccc(O)cc1)C(=O)N[C@H](Cc1ccccc1)C(=O)N[C@@H](CCCNC(=N)N)C(=O)O [C009, Tyr Phe Lys Ala Cha Cha Leu dPhe Arg] (H-YFKA[Cha][Cha]L[dF]R-OH) |  |  |  |  |  |  | C5a agonist |  | 
100 | CN[C@@H](Cc1ccccc1)C(=O)N[C@@H](CCCCN)C(=O)N1CCC[C@H]1C(=O)N[C@H](CC1CCCCC1)C(=O)N[C@@H](CC1CCCCC1)C(=O)N[C@H](CCCNC(=N)N)C(=O)O [C028, MePhe Lys Pro dCha Cha dArg] (H-[NMeF]KP[dCha][Cha][dR]-OH) | strong chemoattractants | 1 µM | stimulates as much GTPase activity as does C5a | 10 | comparable elevations in Ca^2+ level |  | almost complete agonists of all of these responses |  | 
 | B1 |  |  |  |  | comparable elevations in Ca^2+ level |  |  | 10 | 64
